Reference: ChEMBL document CHEMBL4619804, “Target-Based Identification and Optimization of 5-Indazol-5-yl Pyridones as Toll-like Receptor 7 and 8 Antagonists Using a Biochemical TLR8 Antagonist Competition Assay” (J Med Chem, 2020)

What was measured:
Toll-like receptor 1 = molecular target: T1, Toll-like receptor 1 (Homo sapiens, UniProt Q15399); assay: Antagonist activity at TLR1 in human PBMC assessed as inhibition of Pam3CSK4-induced TNFalpha production preincubated for 30 mins followed by Pam3CSK4 addition and measured after 20 hrs by HTRF assay; type: cell-based
T1 sequence (Q15399 whole entry): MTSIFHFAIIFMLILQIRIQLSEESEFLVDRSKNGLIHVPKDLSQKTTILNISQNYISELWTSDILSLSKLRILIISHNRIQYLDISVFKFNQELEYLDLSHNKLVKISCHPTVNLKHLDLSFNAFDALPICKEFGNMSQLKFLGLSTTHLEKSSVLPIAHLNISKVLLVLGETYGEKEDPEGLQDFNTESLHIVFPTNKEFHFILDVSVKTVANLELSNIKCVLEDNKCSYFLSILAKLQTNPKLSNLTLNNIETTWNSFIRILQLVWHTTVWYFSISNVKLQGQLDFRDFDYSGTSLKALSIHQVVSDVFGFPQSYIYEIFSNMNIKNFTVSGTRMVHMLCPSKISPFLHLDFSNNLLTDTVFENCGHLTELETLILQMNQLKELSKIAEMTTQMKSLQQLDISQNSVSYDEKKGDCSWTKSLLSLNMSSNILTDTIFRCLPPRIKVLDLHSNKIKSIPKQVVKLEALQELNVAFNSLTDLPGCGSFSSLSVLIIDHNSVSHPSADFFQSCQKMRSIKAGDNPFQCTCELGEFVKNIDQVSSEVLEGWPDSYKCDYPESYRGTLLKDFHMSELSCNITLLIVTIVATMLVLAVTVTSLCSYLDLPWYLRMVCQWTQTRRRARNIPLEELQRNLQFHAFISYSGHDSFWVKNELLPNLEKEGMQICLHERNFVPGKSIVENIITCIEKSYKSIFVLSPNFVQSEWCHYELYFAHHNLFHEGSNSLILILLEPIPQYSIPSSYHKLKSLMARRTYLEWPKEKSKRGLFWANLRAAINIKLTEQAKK

Toll-like receptor 7 = molecular target: T2, Toll-like receptor 7 (Mus musculus, UniProt P58681); assay: Antagonist activity at TLR7 in mouse whole blood assessed as inhibition of DOTAP-ssRNA40 induced IFNalpha production preincubated for 30 mins followed by ssRNA40 addition measured after 20 hrs by ELISA; type: tissue-based
T2 sequence (P58681 whole entry): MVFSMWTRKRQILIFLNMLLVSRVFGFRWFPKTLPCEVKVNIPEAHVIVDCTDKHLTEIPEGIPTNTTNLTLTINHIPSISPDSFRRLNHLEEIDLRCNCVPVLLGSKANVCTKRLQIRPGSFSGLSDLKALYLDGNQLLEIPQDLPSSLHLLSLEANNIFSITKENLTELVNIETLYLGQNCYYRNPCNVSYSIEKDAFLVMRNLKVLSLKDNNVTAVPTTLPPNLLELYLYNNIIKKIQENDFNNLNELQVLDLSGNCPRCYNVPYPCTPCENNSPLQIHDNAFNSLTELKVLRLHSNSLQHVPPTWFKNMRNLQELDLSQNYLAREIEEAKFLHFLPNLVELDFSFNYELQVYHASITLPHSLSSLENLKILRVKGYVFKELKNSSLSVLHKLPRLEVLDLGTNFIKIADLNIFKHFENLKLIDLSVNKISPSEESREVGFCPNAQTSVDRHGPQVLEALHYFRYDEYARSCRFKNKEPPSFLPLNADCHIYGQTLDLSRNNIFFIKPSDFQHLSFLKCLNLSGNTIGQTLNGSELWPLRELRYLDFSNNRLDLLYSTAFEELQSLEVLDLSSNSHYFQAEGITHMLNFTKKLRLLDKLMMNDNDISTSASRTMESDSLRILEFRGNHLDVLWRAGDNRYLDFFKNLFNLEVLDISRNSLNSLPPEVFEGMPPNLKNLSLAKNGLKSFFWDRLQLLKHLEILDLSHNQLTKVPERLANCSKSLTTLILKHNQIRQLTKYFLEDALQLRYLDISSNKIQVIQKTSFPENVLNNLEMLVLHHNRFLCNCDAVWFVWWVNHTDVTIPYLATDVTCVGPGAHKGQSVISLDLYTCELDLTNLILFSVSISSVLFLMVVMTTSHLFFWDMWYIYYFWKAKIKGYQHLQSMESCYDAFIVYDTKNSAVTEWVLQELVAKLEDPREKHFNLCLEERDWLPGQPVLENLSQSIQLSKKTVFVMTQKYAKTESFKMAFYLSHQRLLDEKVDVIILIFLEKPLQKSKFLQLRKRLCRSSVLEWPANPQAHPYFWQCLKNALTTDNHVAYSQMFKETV

Cytochrome P450 3A4 = Cytochrome P450 3A4 (Homo sapiens, UniProt P08684); assay: Inhibition of CYP3A4 (unknown origin); type: ADME
Sequence of Cytochrome P450 3A4 (P08684 whole entry): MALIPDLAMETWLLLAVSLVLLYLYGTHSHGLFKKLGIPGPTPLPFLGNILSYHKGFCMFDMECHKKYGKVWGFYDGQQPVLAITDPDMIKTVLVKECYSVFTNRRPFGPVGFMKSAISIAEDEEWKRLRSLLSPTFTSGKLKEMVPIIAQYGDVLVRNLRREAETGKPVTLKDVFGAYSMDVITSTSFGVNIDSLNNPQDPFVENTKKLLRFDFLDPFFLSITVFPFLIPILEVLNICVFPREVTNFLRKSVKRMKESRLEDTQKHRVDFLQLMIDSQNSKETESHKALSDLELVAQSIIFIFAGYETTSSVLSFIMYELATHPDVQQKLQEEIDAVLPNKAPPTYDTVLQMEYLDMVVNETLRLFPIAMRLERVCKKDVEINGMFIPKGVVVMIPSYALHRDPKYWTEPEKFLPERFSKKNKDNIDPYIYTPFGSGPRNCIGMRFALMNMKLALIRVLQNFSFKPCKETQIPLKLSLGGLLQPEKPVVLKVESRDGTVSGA

Toll-like receptor 5 = Toll-like receptor 5 (Homo sapiens, UniProt O60602); assay: Antagonist activity at TLR5 in human PBMC assessed as inhibition of flagellin-induced TNFalpha production preincubated for 30 mins followed by flagellin addition and measured after 20 hrs by HTRF assay; type: cell-based
Sequence of Toll-like receptor 5 (O60602 whole entry): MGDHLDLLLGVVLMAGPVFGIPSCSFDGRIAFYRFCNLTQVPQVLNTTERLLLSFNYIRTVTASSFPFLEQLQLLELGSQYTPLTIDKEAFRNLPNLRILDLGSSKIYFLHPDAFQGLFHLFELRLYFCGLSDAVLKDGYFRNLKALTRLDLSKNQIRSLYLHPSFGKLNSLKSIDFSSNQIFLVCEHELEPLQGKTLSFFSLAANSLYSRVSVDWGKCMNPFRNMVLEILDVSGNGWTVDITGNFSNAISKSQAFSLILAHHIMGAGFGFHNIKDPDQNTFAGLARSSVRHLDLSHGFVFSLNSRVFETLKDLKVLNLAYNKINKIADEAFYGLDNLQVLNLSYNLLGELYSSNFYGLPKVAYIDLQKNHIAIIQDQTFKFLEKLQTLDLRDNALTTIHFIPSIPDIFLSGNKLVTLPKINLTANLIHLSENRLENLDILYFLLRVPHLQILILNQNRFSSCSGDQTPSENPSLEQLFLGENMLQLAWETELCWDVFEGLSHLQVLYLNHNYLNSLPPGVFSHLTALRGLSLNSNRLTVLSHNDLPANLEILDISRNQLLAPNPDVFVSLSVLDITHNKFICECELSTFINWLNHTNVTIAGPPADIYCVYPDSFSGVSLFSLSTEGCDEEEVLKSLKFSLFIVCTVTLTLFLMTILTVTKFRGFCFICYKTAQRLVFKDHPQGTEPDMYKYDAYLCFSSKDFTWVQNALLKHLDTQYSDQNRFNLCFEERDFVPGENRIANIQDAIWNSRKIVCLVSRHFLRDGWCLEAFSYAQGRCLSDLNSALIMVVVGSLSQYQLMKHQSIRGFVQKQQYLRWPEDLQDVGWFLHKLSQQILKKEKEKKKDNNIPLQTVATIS

[1] = molecular target: T3, Interleukin-1 receptor type 1 (Homo sapiens, UniProt P14778); assay: Antagonist activity at IL1R in human PBMC assessed as inhibition of IL1beta-induced TNFalpha production preincubated for 30 mins followed by IL1beta addition and measured after 20 hrs by HTRF assay; type: cell-based
T3 sequence (P14778 whole entry): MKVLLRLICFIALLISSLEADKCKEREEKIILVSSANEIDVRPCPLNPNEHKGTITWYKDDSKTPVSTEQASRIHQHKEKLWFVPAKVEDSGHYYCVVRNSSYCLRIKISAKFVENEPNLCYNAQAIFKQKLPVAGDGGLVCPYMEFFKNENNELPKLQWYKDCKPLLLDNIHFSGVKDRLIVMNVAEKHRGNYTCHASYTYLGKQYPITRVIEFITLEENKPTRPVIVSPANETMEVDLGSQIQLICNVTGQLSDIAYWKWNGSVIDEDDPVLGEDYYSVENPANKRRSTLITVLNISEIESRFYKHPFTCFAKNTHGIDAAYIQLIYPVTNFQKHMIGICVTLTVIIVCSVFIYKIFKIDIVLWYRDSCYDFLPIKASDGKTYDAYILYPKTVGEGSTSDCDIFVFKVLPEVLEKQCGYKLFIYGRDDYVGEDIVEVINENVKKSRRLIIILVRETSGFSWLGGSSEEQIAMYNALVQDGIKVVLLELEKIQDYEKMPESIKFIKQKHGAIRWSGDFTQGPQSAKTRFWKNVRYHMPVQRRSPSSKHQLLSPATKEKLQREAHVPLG

IC50 (Toll-like receptor 1): > 6.5 µM
IC50 (Toll-like receptor 7): 0.18 µM
IC50 (Cytochrome P450 3A4): > 25 µM
IC50 (Toll-like receptor 5): > 6.5 µM
IC50 [1]: > 6.5 µM
SMILES: O=c1ccc(-c2cc(C(F)(F)F)c3nn([C@H]4CCNC[C@@H]4F)cc3c2)c2n1CCC2
